Experimental data as given in patent US8703961B2, “Thiazole derivatives for the treatment of diseases such as cancer” (Merck Patent GmbH, priority 2009, dated 2014).

Assays:
Assay in all cases: filter binding kinase assay
Format in all cases: biochemical
CHEK1 (CHK1) = molecular target: T1, CHEK1 (CHK1) (Homo sapiens, UniProt O14757); conditions: for IC50: derived from % inhibition at 1 μM
T1 construct: purchased
T1 sequence (O14757 1-476): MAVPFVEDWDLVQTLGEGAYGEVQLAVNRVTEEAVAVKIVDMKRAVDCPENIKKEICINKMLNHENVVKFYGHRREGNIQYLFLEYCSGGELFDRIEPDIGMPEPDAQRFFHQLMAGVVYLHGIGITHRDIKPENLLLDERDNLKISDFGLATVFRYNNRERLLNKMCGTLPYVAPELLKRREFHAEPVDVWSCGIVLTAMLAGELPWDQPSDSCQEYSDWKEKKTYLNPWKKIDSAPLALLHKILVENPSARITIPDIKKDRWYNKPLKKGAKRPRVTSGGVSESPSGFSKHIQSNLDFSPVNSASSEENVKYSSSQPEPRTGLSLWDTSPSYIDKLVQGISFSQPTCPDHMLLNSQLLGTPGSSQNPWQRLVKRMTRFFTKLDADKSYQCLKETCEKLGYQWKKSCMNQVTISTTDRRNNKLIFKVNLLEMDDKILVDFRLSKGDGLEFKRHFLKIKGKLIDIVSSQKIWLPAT
In short: (§1)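 Compound was pre-incubated with enzyme and substrate for 5 minutes at room temperature, then the reaction was started with ATP (added solution at 5, 20 or 50 […] depending on kinase). Orthophosphoric acid stopped it, and phosphorylated substrate captured on P81 filters was quantified by scintillation counting.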

INSRR = molecular target: T2, INSRR (Homo sapiens, UniProt P14616); conditions: derived from % inhibition at 1 μM
T2 construct: purchased
T2 sequence (P14616 27-1297, species assumed): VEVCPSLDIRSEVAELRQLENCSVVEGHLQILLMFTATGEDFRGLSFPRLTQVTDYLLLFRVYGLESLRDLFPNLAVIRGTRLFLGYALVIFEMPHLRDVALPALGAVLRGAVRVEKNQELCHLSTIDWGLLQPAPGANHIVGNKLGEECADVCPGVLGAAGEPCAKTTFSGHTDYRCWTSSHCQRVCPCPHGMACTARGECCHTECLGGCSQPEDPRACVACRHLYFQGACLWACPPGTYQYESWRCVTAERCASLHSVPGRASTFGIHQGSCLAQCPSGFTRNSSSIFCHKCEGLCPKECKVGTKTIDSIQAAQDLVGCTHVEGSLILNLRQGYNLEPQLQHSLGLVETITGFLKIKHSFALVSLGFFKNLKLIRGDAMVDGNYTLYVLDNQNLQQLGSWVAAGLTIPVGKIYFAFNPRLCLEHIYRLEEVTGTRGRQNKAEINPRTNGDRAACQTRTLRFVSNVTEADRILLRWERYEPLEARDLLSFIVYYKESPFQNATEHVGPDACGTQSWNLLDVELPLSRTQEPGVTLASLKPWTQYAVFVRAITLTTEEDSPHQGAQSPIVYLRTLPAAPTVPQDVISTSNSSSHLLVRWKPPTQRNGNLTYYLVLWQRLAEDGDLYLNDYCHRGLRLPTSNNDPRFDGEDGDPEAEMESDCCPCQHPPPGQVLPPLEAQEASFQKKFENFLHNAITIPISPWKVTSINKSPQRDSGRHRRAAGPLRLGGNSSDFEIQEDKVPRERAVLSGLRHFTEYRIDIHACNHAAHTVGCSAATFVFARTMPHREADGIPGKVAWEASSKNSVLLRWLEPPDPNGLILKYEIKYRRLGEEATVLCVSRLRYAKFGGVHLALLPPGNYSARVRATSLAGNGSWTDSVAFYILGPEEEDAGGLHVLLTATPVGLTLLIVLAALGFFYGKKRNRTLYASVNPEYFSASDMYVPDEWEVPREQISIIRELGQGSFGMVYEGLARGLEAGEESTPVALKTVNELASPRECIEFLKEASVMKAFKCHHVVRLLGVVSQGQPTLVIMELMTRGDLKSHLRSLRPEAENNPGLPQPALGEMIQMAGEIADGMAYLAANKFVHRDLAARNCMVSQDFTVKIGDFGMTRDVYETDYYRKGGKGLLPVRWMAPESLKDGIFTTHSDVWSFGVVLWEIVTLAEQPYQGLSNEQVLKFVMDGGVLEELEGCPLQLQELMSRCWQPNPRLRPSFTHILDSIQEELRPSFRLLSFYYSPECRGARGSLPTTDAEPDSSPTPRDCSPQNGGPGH
In short: as §1

PAK2 = molecular target: T3, PAK2 (Homo sapiens, UniProt Q13177); conditions: derived from % inhibition at 1 μM
T3 construct: purchased
T3 sequence (Q13177 whole entry, species assumed): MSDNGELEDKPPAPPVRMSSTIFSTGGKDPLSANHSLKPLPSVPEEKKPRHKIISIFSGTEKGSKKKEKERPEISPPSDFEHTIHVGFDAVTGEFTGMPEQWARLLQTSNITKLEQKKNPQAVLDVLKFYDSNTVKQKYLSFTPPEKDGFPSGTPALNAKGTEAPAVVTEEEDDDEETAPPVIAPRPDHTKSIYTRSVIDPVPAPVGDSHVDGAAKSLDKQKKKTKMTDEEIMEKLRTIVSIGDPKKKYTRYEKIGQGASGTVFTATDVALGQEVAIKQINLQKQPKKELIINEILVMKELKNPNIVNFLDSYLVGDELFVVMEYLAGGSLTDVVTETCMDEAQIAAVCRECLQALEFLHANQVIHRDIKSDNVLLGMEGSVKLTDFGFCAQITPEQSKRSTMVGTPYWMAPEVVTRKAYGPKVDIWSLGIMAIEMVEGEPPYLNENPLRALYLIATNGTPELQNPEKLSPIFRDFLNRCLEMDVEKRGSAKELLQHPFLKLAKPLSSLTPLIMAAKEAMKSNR
In short: as §1

MAPK12 = molecular target: T4, MAPK12 (Homo sapiens, UniProt P53778); conditions: derived from % inhibition at 1 μM
T4 construct: purchased
T4 sequence (P53778 1-367): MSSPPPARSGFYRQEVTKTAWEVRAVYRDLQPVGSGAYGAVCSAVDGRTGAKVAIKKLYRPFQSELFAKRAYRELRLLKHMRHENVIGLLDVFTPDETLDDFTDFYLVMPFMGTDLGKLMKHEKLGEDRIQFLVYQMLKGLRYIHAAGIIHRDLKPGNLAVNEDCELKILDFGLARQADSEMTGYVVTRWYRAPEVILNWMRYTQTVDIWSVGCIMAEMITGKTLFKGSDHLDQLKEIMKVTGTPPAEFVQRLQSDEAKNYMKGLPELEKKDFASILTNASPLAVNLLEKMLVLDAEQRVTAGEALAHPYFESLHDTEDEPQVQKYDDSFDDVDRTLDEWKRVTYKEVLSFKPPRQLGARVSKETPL
In short: as §1

MYLK = molecular target: T5, MYLK (Homo sapiens, UniProt Q15746); conditions: derived from % inhibition at 1 μM
T5 construct: purchased
In short: as §1

MAP2K1 (MKK1) = molecular target: T6, MAP2K1 (MKK1) (Homo sapiens, UniProt Q02750); conditions: for IC50: derived from % inhibition at 1 μM
T6 construct: purchased
T6 sequence (Q02750 whole entry, species assumed): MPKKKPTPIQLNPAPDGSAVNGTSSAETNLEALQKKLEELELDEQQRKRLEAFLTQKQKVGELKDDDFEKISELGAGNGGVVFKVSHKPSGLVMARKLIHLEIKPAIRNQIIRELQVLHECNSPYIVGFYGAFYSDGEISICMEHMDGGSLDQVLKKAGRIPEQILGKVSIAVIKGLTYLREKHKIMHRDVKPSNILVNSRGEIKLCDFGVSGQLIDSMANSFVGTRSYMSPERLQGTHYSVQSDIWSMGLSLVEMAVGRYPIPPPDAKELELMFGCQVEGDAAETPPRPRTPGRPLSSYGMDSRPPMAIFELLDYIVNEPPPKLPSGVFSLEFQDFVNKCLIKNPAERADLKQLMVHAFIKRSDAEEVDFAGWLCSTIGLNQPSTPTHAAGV
In short: as §1

MAPK9 = molecular target: T7, MAPK9 (Homo sapiens, UniProt P45984); conditions: derived from % inhibition at 1 μM
T7 construct: purchased
T7 sequence (P45984 whole entry, species assumed): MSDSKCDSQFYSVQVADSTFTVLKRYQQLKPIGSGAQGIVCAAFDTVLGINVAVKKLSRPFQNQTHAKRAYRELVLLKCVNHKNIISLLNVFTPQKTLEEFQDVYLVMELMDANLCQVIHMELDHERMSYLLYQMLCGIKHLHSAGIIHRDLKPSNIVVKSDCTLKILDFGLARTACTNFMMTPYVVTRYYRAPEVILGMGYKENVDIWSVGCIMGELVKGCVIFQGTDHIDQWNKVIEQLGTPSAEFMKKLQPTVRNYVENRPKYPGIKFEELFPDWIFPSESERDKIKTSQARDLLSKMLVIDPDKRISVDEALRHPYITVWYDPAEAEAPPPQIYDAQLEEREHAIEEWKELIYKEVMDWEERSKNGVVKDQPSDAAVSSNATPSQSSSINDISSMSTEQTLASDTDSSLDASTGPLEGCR
In short: as §1

MAPK14 = molecular target: T8, MAPK14 (Homo sapiens, UniProt Q16539); conditions: derived from % inhibition at 1 μM
T8 construct: purchased
T8 sequence (Q16539 whole entry, species assumed): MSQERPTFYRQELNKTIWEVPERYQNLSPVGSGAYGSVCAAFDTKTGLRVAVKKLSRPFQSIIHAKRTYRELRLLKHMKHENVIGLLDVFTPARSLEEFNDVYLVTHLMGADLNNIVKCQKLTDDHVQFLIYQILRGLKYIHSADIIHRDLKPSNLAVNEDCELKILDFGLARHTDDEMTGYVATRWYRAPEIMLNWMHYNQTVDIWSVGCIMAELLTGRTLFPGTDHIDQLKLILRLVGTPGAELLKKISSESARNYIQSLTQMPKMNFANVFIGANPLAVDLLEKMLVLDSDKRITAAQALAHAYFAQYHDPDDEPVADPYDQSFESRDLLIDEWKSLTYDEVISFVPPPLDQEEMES
In short: as §1

PRKD2 = molecular target: T9, PRKD2 (Homo sapiens, UniProt Q9BZL6); conditions: derived from % inhibition at 1 μM
T9 construct: purchased
T9 sequence (Q9BZL6 1-878): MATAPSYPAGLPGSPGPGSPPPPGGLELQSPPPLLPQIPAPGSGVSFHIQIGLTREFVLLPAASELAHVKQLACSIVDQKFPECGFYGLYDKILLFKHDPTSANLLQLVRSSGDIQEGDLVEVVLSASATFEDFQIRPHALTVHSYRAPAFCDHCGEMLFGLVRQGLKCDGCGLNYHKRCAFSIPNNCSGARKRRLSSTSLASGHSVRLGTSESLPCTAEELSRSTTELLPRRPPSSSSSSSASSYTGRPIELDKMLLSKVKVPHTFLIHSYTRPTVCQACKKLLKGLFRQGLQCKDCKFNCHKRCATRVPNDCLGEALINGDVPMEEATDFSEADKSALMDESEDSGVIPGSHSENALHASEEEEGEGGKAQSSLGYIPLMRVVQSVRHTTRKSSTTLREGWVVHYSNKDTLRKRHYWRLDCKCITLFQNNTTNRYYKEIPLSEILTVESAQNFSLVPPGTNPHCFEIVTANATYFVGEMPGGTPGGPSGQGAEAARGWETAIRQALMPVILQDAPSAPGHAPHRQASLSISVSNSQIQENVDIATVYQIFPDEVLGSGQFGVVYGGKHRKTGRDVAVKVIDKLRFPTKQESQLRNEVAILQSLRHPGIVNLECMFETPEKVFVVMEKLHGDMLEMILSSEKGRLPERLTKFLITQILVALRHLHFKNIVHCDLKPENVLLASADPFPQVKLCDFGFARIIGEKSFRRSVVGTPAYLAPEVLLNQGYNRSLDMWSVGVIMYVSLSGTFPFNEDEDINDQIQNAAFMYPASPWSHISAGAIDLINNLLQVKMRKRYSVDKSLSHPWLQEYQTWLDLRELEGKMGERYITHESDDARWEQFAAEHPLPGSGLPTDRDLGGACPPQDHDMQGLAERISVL
In short: as §1

MET = molecular target: T10, MET (Homo sapiens, UniProt P08581); conditions: derived from % inhibition at 1 μM
T10 construct: 6His (N); purchased Upstate 14-526; host or cells: insect cells (Sf21; S. frugiperda), baculovirus
T10 sequence (P08581 25-1390): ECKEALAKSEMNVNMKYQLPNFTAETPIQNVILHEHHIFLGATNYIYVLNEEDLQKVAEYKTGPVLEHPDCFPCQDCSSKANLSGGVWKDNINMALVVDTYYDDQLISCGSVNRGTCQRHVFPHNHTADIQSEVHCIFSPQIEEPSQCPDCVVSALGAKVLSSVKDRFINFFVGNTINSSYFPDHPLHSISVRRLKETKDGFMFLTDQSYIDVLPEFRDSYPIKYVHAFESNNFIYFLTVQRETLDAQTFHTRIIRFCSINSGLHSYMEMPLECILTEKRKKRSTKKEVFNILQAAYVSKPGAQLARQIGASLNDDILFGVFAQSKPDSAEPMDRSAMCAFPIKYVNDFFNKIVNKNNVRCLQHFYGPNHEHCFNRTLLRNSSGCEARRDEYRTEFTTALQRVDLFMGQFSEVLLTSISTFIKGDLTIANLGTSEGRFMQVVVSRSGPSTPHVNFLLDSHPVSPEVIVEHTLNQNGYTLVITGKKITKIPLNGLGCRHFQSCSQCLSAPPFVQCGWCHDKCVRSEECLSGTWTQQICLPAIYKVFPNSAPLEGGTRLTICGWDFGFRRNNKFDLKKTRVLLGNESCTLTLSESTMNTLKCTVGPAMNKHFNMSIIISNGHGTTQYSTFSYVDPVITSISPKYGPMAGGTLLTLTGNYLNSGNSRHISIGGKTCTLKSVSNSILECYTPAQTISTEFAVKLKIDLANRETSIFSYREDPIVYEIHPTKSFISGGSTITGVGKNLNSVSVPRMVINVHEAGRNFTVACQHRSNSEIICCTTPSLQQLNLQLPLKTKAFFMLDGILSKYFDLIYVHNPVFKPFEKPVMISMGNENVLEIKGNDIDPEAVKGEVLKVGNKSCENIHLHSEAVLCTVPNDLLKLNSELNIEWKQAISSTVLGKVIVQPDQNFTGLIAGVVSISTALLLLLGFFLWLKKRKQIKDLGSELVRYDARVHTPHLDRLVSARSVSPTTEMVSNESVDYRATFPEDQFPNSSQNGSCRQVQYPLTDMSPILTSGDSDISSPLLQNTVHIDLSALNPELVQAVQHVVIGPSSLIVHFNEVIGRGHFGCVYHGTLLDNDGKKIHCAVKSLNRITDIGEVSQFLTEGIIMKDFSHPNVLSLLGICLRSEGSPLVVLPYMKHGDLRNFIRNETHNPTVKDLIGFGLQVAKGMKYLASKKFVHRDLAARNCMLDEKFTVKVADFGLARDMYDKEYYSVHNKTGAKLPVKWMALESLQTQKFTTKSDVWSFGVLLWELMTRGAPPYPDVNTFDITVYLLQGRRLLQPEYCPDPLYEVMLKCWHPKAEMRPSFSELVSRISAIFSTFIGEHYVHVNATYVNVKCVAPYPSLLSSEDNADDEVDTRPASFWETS
In short: as §1

c1ccc(Cc2c[nH]c3ncsc23)cc1 [Compound A7, 6-benzyl-4H-pyrrolo[2,3-d]thiazole]
IC50 (CHEK1 (CHK1)): > 1000 nM | IC50 (INSRR): > 1000 nM | IC50 (PAK2): 1000 to 10000 nM | IC50 (MAPK12): > 1000 nM | IC50 (MYLK): > 1000 nM | IC50 (MAP2K1 (MKK1)): 1000 to 10000 nM | IC50 (MAPK9): 10000 to 100000 nM | IC50 (MAPK14): 1000 to 10000 nM | IC50 (PRKD2): 1000 to 10000 nM | IC50 (MET): 1000 to 10000 nM

Nc1ncsc1C#Cc1cnc2[nH]ccc2c1 [Compound A22, 5-(1H-pyrrolo[2,3-b]pyridin-5-ylethynyl)thiazol-4-ylamine]
IC50 (CHEK1 (CHK1)): 10 to 1000 nM | remaining activity at 1 µM (CHEK1 (CHK1); read-out: residual kinase activity CHK1): 40% | IC50 (INSRR): 1000 to 10000 nM | IC50 (PAK2): > 1000 nM | IC50 (MAPK12): 1000 to 10000 nM | IC50 (MYLK): > 1000 nM | IC50 (MAP2K1 (MKK1)): 10 to 1000 nM | remaining activity at 1 µM (MAP2K1 (MKK1); read-out: residual kinase activity MKK1): 43% | IC50 (MAPK9): > 1000 nM | IC50 (MAPK14): 10000 to 100000 nM | IC50 (PRKD2): > 1000 nM | IC50 (MET): > 1000 nM

Nc1ncsc1C#Cc1cccc(O)c1 [Compound A27, 3-(4-aminothiazol-5-ylethynyl)phenol]
IC50 (CHEK1 (CHK1)): 10000 to 100000 nM | IC50 (INSRR): > 1000 nM | IC50 (PAK2): > 1000 nM | IC50 (MAPK12): 1000 to 10000 nM | IC50 (MYLK): 1000 to 10000 nM | IC50 (MAP2K1 (MKK1)): > 1000 nM | IC50 (MAPK9): 1000 to 10000 nM | IC50 (MAPK14): 1000 to 10000 nM | IC50 (PRKD2): 1000 to 10000 nM | IC50 (MET): 10000 to 100000 nM

CC(C)(C)OC(=O)Nc1ncsc1C#CCN1C(=O)c2ccccc2C1=O [Compound A26, tert-butyl{5-[3-(1,3-dioxo-1,3-dihydroisoindol-2-yl)prop-1-ynyl]-thiazol-4-yl}carbamate]
IC50 (CHEK1 (CHK1)): 10000 to 100000 nM | IC50 (INSRR): 1000 to 10000 nM | IC50 (PAK2): > 1000 nM | IC50 (MAPK12): 10000 to 100000 nM | IC50 (MYLK): > 1000 nM | IC50 (MAP2K1 (MKK1)): 1000 to 10000 nM | IC50 (MAPK9): > 1000 nM | IC50 (MAPK14): 10000 to 100000 nM | IC50 (PRKD2): > 1000 nM | IC50 (MET): > 1000 nM

CC(C)(C)OC(=O)Nc1nc(-c2ccncc2)sc1C#CCN1CCOCC1 [Compound A25, tert-butyl[5-(3-morpholin-4-ylprop-1-ynyl)-2-pyridin-4-ylthiazol-4-yl]-carbamate]
IC50 (CHEK1 (CHK1)): 10000 to 100000 nM | IC50 (INSRR): > 1000 nM | IC50 (PAK2): > 1000 nM | IC50 (MAPK12): 10000 to 100000 nM | IC50 (MYLK): > 1000 nM | IC50 (MAP2K1 (MKK1)): 1000 to 10000 nM | IC50 (MAPK9): > 1000 nM | IC50 (MAPK14): 10000 to 100000 nM | IC50 (PRKD2): > 1000 nM | IC50 (MET): > 1000 nM
